Measured values reported in patent US6656937B2, “Substituted glutarimides and their use as inhibitors of IL-12 production” (Gruenenthal, GmbH, priority 2000, dated 2003).
Values after ≈ are worked out from the molar mass of the structure shown. Structures can show the parent of a compound that is named as a salt.

Tests used:
[1] = system: IL-12 production by LPS-activated monocytes; assay: Stimulation of human monocytes with lipopolysaccharide for secretion of IL-12 (IL-12 sandwich ELISA of culture supernatants); type: cell-based; details: CD14-positive human monocytes, 1 h preincubation with test substance, 20 μg/ml LPS from E. coli, 24 hours; for IC50: Monocyte, read-out: Inhibition of IL-12 production IC50
Procedure: Human monocytes were isolated from peripheral blood mononuclear cells (PBMC) obtained by means of a Ficoll density-gradient centrifugation of heparinized whole blood. To this end, the PBMC were incubated with a monoclonal antibody directed against the monocyte-specific surface molecule CD14 and to which superparamagnetic microbeads (Miltenyi Biotech, Bergisch Gladbach) are coupled. In order for the marked monocytes to be positively selected from the mixture of cells in the PBMC, the total cell suspension was transferred to a column with a ferromagnetic carrier matrix and the column placed in a magnetic field. This caused the cells loaded with microbeads to be bonded to the carrier matrix, whilst unmarked cells passed through the column and were discarded. After removing the matrix from the magnetic field, the antibody-loaded cells were eluted by rinsing the now demagnetised column with buffer. The purity of this CD 14-positive monocyte population thus obtained was around 95 to 98%. These monocytes were incubated in a density of 10^6 cells/ml culture medium (RPMI, supplemented with 10% fetal calf serum) with the test substances dissolved in DMSO for one hour at 37° C. and 5% CO2.20 μg/ml LPS from E. coli were then added. After 24 hours, cell-free culture supernatants were taken and tested for their IL-12 content.
The concentration of IL-12 in the cell culture supernatants was determined by means of sandwich ELISA using two anti-IL-12 monoclonal antibodies (Biosource Europe, Fleurus, Belgium). A reference standard curve with human IL-12 was included. The detection limit of the IL-12 ELISA was 10 pg/ml.

Row | Inhibition of IL-12 production IC50 [1] [µg/mL] | melting point | IC50 [1] [µg/mL] | Molecule | Inhibition of IL-12 production Maximum (%) [1] [%]
1 | 1.5 |  |  | 2-[(3S)-(2,6-dioxopiperidin-3-ylamino)methyl]benzyl benzoate [Example 9.2] | 82
2 |  | 256 °C (dec.) |  | Cc1ccc(CNC2CCC(=O)NC2=O)cc1 (racemic) (as salt: hydrochloride) [Example 2.38, 3-(4-methylbenzylamino) piperidine-2,6-dione] | 
3 |  | 208 to 212 °C |  | CCOc1ccccc1CNC1CCC(=O)NC1=O (racemic) (as salt: hydrochloride) [Example 2.39, 3-(2-ethoxybenzylamino) piperidine-2,6-dione] | 
4 |  | 242 to 246 °C |  | O=C1CCC(NCc2cc(Cl)ccc2Cl)C(=O)N1 (racemic) (as salt: hydrochloride) [Example 2.40, 3-(2,5-dichlorobenzylamino) piperidine-2,6-dione] | 
5 |  | 217 to 219 °C |  | COc1cccc(CNC2CCC(=O)NC2=O)c1 (racemic) (as salt: hydrochloride) [Example 2.41, 3-(3-methoxybenzylamino) piperidine-2,6-dione] | 
6 |  | 120 to 125 °C (dec.) |  | O=C1CCC(NCc2ccc3ccccc3c2)C(=O)N1 (racemic) [Example 2.12, 3-[(naphth-2-ylmethyl)amino]piperidine-2,6-dione] | 
7 |  | 157 to 162 °C |  | CN(Cc1cccc2ccccc12)C1CCC(=O)NC1=O (racemic) [Example 4.5, 3-(methylnaphth-1-ylmethylamino) piperidine-2,6-dione] | 
8 |  |  | 1 (≈ 3.81 µM) | O=C1CC[C@H](NCc2ccccc2C(=O)O)C(=O)N1 [Example 6.1, 2-[(3S)-(2,6-dioxopiperidin-3-ylamino)methyl]benzoic acid] | 85
9 |  |  | 1 (≈ 3.81 µM) | O=C1CC[C@@H](NCc2ccccc2C(=O)O)C(=O)N1 [Example 6.2, 2-[(3R)-(2,6-dioxopiperidin-3-ylamino)methyl]benzoic acid] | 75
10 |  |  | 1.5 (≈ 4.73 µM) | CCN(CC)C(=O)c1ccccc1CN[C@H]1CCC(=O)NC1=O [Example 7, 2-[(3S)-(2,6-dioxopiperidin-3-ylamino)methyl]-N,N-diethylbenzamide] | 90
11 |  |  | 0.15 (≈ 0.574 µM) | NC(=O)c1ccccc1CN[C@H]1CCC(=O)NC1=O [Example 8.3, 2-[(3S)-(2,6-dioxopiperidin-3-ylamino)methyl]benzamide] | 90
12 | 0.9 |  |  | CCNC(=O)c1ccccc1CN[C@H]1CCC(=O)NC1=O [Example 8.4, 2-[(3S)-(2,6-dioxopiperidin-3-ylamino)methyl]-N-ethyl benzamide] | 80
13 | 2.0 |  |  | O=C1CC[C@H](NCc2ccccc2C(=O)N2CCCC2)C(=O)N1 [Example 8.5] | 80
14 |  |  | 0.04 (≈ 0.145 µM) | NNC(=O)c1ccccc1CN[C@H]1CCC(=O)NC1=O [Example 8.6, 2-[(3S)-(2,6-dioxopiperidin-3-ylamino)methyl]benzoic acid hydrazide] | 90
15 |  |  | 0.7 (≈ 2.07 µM) | O=C1CC[C@H](NCc2ccccc2C(=O)Nc2ccccc2)C(=O)N1 [Example 8.7, 2-[(3S)-(2,6-dioxopiperidin-3-ylamino)methyl]-N-phenylbenzamide] | 55
16 |  |  |  | O=C1CC[C@@H](NCc2ccccc2C(=O)Nc2ccccc2)C(=O)N1 [Example 8.10, 2-[(3R)-(2,6-dioxopiperidin-3-ylamino)methyl]-N-phenyl benzamide] | 50
17 | 0.2 |  |  | CCN(CC)C(=O)c1ccccc1CN[C@@H]1CCC(=O)NC1=O [Example 8.11, 2-[(3R)-(2,6-dioxopiperidin-3-ylamino)methyl]-N,N-diethyl benzamide] | 90
18 |  |  | 1 (≈ 3.83 µM) | NC(=O)c1ccccc1CN[C@@H]1CCC(=O)NC1=O [Example 8.12, 2-[(3R)-(2,6-dioxopiperidin-3-ylamino)methyl]benzamide] | 84
19 | 0.1 |  |  | COC(=O)c1ccccc1CN[C@H]1CCC(=O)NC1=O [Example 9.1, 2-[(3S)-(2,6-dioxopiperidin-3-ylamino)methyl]methyl benzoate] | 90

Row | Inhibition of IL-12 production IC50 [1] [µg/mL] | melting point | IC50 [1] [µg/mL] | Molecule | Inhibition of IL-12 production Maximum (%) [1] [%]
20 |  | 149 to 150 °C |  | O=C1CCC(CNc2ccc(Br)cc2)C(=O)N1 (stereo not drawn) [Example 11.1, 3-[(4-bromophenylamino)methyl]piperidine-2,6-dione] | 
21 |  | 135 to 138 °C |  | O=C1CCC(CNc2cccc(C(F)(F)F)c2)C(=O)N1 (stereo not drawn) [Example 11.2, 3-[(3-trifluoromethylphenylamino)methyl]piperidine-2,6-dione] | 
22 |  | 145 to 148 °C |  | O=C1CCC(CNc2cccc3ccccc23)C(=O)N1 (stereo not drawn) [Example 11.3, 3-(naphth-1-ylaminomethyl) piperidine-2,6-dione] | 
23 |  | 135 to 138 °C |  | O=C1CCC(CNc2ccc(-c3ccccc3)cc2)C(=O)N1 (stereo not drawn) [Example 11.4, 3-(biphenyl-4-ylaminomethyl) piperidine-2,6-dione] | 
24 |  | 221 to 225 °C |  | O=C1CCC(CNc2ccc(C(c3ccccc3)(c3ccccc3)c3ccccc3)cc2)C(=O)N1 (stereo not drawn) [Example 11.6, 3-[(4-tritylphenylamino)methyl]piperidine-2,6-dione] | 
25 |  | 129 to 132 °C |  | CC(=O)c1cccc(NCC2CCC(=O)NC2=O)c1 (stereo not drawn) [Example 11.9, 3-[(3-acetylphenylamino)methyl]piperidine-2,6-dione] | 
26 |  | 132 to 134 °C |  | CN(CC1CCC(=O)NC1=O)c1ccccc1 (stereo not drawn) [Example 11.10, 3-[(N-methyl-N-phenylamino)methyl]piperidine-2,6-dione] | 
27 |  | 131 to 134 °C |  | COc1ccc(NCC2CCC(=O)NC2=O)cc1 (stereo not drawn) [Example 11.13, 3-[(4-methoxyphenylamino)methyl]piperidine-2,6-dione] | 
28 |  | 203 to 206 °C |  | NC(=O)c1ccccc1NCC1CCC(=O)NC1=O (stereo not drawn) [Example 11.15, 2-[(2,6-dioxopiperidin-3-ylmethyl)amino]benzamide] | 
29 |  | 160 °C |  | CC(=O)c1ccc(NCC2CCC(=O)NC2=O)cc1 (stereo not drawn) [Example 11.16, 3-[(4-acetylphenylamino)methyl]piperidine-2,6-dione] | 
30 |  | 152 to 158 °C |  | O=C1CCC(CNc2cccc(C(=O)c3ccccc3)c2)C(=O)N1 (stereo not drawn) [Example 11.17, 3-[(3-benzoylphenylamino)methyl]piperidine-2,6-dione] | 
31 |  | 78 °C |  | O=C1CCC(CSCCc2ccccc2)C(=O)N1 (stereo not drawn) [Example 13.2, 3-phenethylsulfanylmethyl piperidine-2,6-dione] | 
32 | 6.0 |  |  | COC(=O)c1ccccc1SCC1CCC(=O)NC1=O (stereo not drawn) [Example 13.3, 2-(2,6-dioxopiperidin-3-ylmethyl)sulfanyl) methyl benzoate] | 50
33 | 3.0 |  |  | CC(=O)Nc1ccccc1CNC1CCC(=O)NC1=O (stereo not drawn) [Example 16] | 95
34 |  |  | 0.02 (≈ 0.0765 µM) | O=CNc1ccccc1CNC1CCC(=O)NC1=O (stereo not drawn) [Example 17, N-{2-[(2,6-dioxopiperidin-3-ylamino)methyl]phenyl}Formamide] | 98
35 | 3.0 |  |  | COC(=O)c1cc(SCC2CCC(=O)NC2=O)ccc1[N+](=O)[O-] (stereo not drawn) [Example 18, 3-(2,6-dioxopiperidin-3-ylmethylsulfanyl)-6-nitro Methylbenzoate] | 57
36 | 5.0 |  |  | COC(=O)c1cc(SCC2CCC(=O)NC2=O)ccc1N (stereo not drawn) [Example 19, 2-amino-5-(2,6-dioxopiperidin-3-ylmethylsulfanyl) methyl benzoate] | 66
37 | 1.8 |  |  | {2-[(3S)-(2,6-dioxopiperidin-3-ylamino)methyl]benzoylamino}methyl acetate [Example 8.2] | 70

Row | Molecule | Inhibition of IL-12 production IC50 [1] [µg/mL] | melting point | IC50 [1] [µg/mL] | Inhibition of IL-12 production Maximum (%) [1] [%]
38 | O=C1CC[C@H](NCc2ccccc2C(=O)N2CCOCC2)C(=O)N1 [Example 8.1] | 1.8 |  |  | 90
